Patent US20260176262A1, “KRAS INHIBITORS, PREPARATION METHOD THEREFOR, AND PHARMACEUTICAL USE THEREOF” (ABBISKO THERAPEUTICS CO., LTD., priority 2021, published 2026)
Like-named read-outs stand apart in the source and are kept apart here.

What was measured:
[1] = molecular target: KRAS^G12D/cRAF (Homo sapiens, UniProt P01116, G12D); experiment: KRAS G12D/cRAF binding test (Alphalisa); settings: His-tagged KRAS G12D + GMPPNP, GST-tagged cRAF
Description: The compound was dissolved in 100% DMSO at a starting concentration of 5 mM and diluted in DMSO with a 3-fold serial dilution method for a total of 8 concentration points. 1 μL of the compound or DMSO at each concentration point was added into 99 μL of the experimental buffer to obtain 10× stock solution.
• 1) 4 μL of the working mixture solution of His-tagged KRAS^G12D and GMPPNP was added to the 384-well plate. • 2) The 10× compound stock solution or 1% DMSO was added to the 384-well plate. • 3) The plate was centrifuged at 1000 rpm for 1 minute. • 4) 4 μL of GST-tagged cRAF solution was added to the 384-well plate. • 5) The plate was centrifuged at 1000 rpm for 1 minute. • 6) The plate was incubated at room temperature for 15 minutes. • 7) 10 μL of detection working solution was added to the 384-well plate. • 8) The plate was centrifuged at 1000 rpm for 1 minute. • 9) The plate was incubated at room temperature for 60 minutes. • 10) The 384-well plate was placed into Envision and assay data was obtained.
(§1) The ratio for each compound concentration was calculated from the signal of the DMSO control group contained in each assay plate and the Alphalisa signal in each compound well. The compound concentration required for inhibitory concentration at 50% (IC50) was determined using a four-parameter logarithmic dose-response equation by testing the concentration of the compound and the value of the ratio. The endpoint value (IC50) of the reference compound was assessed in each experiment as a quality control measure. If the endpoint value is within three times the expected value, the experiment may be considered acceptable.

[2] = system: AGS cell; experiment: Anti-proliferative 2D CTG assay, AGS cells; format: cell-based; settings: Homo sapiens, 72 h
Description: When the cell confluence was about 80%, the cells were isolated with 0.25% trypsin. Isolated cells were resuspended in 5 mL fresh cell culture medium and centrifuged for cell collection. Meanwhile, the number of cells was also calculated. The cells were then suspended in culture medium of medium concentration. The cells were placed into a 96-well plate with 1000 cells/well for AGS and 1000 cells/well for GP2D. The 96-well plate was placed in an incubator at 37° C. and incubated overnight.
1.2 Day 1 Compound Treatment From the 10 mM stock solution, with a ratio of 1:5, 10-point serial dilutions were performed. The 10× medium containing the compound was transferred into corresponding wells of the 96 wells. The final maximum compound concentration was […] and the final DMSO concentration was 0.1%. The 96-well plate was placed in a 37° C. incubator, the AGS cells were incubated for 3 days, and the GP2D cells were incubated for 4 days.
50 μL/well of detection reagent (CTG) was added to the AGS cells, and the signal was read in an Envision machine.
as §1, with “The percent inhibition (%) at” for “The ratio for”, “signal in” for “signal of”, “the HPE and ZPE” for “the DMSO”, “control wells and the fluorescence signal in the individual compound wells included” for “control group contained”, “assay plate. […]” for “assay plate and the Alphalisa signal in each compound well.”, “the inhibition percentage value.” for “the value of the ratio.”

[3] = AGS cells, incubated 3 days, CTG, class symbols, read-out: AGS cell IC50
[4] = AGS cells, incubated 3 days, CTG, numeric values, read-out: AGS cell IC50

Sequence of KRAS^G12D/cRAF (P01116 1-188 isoform P01116-2 G12D): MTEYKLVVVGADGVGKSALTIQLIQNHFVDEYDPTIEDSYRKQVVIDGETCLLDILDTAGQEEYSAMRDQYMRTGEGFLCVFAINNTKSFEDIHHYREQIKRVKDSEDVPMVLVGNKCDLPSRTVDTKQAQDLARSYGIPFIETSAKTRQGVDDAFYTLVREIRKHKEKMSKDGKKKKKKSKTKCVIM

| Structure (SMILES) | IC50 ([1]; class symbols) [nM] | IC50 [2, 3] [nM] | IC50 ([1]; numeric values) [nM] | IC50 ([2]; AGS, read-out: AGS cell IC50 (nM)) [nM] | IC50 [2, 4] [nM] |
| --- | --- | --- | --- | --- | --- |
| C#Cc1c(F)ccc2cc(O)cc(-c3ncc4c(N5CC6CCC(C(=O)O)(C5)N6)nc(OC[C@@]56CCCN5C[C@H](F)C6)nc4c3F)c12 (stereo partly drawn) [Example 22, 3-(7-(8-ethynyl-7-fluoro-3-hydroxynaphthalen-1-yl)-8-fluoro-2-(((2R,7aS)-2-fluorotetrahydro-1H-pyrrolizin-7a(5H)-yl)methoxy)pyrido[4,3-d]pyrimidin-4-yl)-3,8-diazabicyclo[3.2.1] octan-1-carboxylic acid] | 50 to 500 | > 500 | – | – | – |
| C#Cc1c(F)ccc2cc(O)cc(-c3ncc4c(N5CC6CCC(COC)(C5)N6)nc(OC[C@@]56CCCN5C[C@H](F)C6)nc4c3F)c12 (stereo partly drawn) [Example 1, 5-ethynyl-6-fluoro-4-(8-fluoro-2-(((2R,7aS)-2-fluorotetrahydro-1H-pyrrolizin-7a-yl)methoxy)-4-(1-(methoxymethyl)-3,8-diazabicyclo[3.2.1]octan-3-yl)pyrido[4,3-d]pyrimidin-7-yl)naphthalen-2-ol] | – | – | 100 | 20 | – |
| C#Cc1c(F)ccc2cc(O)cc(-c3ncc4c(N5C[C@@H]6CC[C@](/C=C/F)(C5)N6)nc(OC[C@@]56CCCN5C[C@H](F)C6)nc4c3F)c12 [Example 62, 5-ethynyl-6-fluoro-4-(8-fluoro-2-(((2R,7aS)-2-fluorotetrahydro-1H-pyrrolizin-7a(5H)-yl)methoxy)-4-((1S,5S)-1-((E)-2-fluorovinyl)-3,8-diazabicyclo[3.2.1]octan-3-yl)pyrido[4,3-d]pyrimidin-7-yl)naphthalen-2-ol] | – | – | 18 | – | 27 |
| C#Cc1c(F)ccc2cc(O)cc(-c3ncc4c(N5C[C@H]6CC[C@@](CC)(C5)N6)nc(OC[C@@]56CCCN5C[C@H](F)C6)nc4c3F)c12 [Example 53, 4-(4-((1S,5R)-1-ethyl-3,8-diazabicyclo[3.2.1]octan-3-yl)-8-fluoro-2-(((2R,7aS)-2-fluorotetrahydro-1H-pyrrolizin-7a(5H)-yl)methoxy)pyrido[4,3-d]pyrimidin-7-yl)-5-eth ynyl-6-fluoronaphthalen-2-ol] | – | – | 221 | – | 708 |
| [2H]C([2H])([2H])OCC12CCC(CN(c3nc(OC[C@@]45CCCN4C[C@H](F)C5)nc4c(F)c(-c5cc(O)cc6cc(F)c(F)c(C#C)c56)ncc34)C1)N2 (stereo partly drawn) [Example 15, 5-ethynyl-6,7-difluoro-4-(8-fluoro-2-(((2R,7aS)-2-fluorotetrahydro-1H-pyrrolizin-7a(5H)-yl)methoxy)-4-(1-((methoxy-d3)methyl)-3,8-diazabicyclo[3.2.1]octan-3-yl)pyrido[4,3-d]pyrimidin-7-yl)naphthalen-2-ol] | 50 to 500 | 50 to 500 | – | – | – |
| [2H]C([2H])([2H])OC[C@@]12CC[C@@H](CN(c3nc(OC[C@@]45CCCN4C[C@H](F)C5)nc4c(F)c(-c5cc(O)cc6ccc(F)c(C#C)c56)nc(OCC)c34)C1)N2 [Example 52, 4-(5-ethoxy-8-fluoro-2-(((2R,7aS)-2-fluorotetrahydro-1H-pyrrolizin-7a(5H)-yl)methoxy)-4-((1R,5S)-1-((methoxy-d3)methyl)-3,8-diazabicyclo[3.2.1]octan-3-yl)pyrido[4,3-d]pyrimidin-7-yl)-5-ethynyl-6-fluoronaphthalen-2-ol] | 50 to 500 | < 50 | – | – | – |
| C#Cc1c(F)ccc2cc(O)cc(-c3ncc4c(N5CC6CCC(C#C)(C5)N6)nc(OC[C@@]56CCCN5C[C@H](F)C6)nc4c3F)c12 (stereo partly drawn) [Example 6, 5-ethynyl-4-(4-(1-ethynyl-3,8-diazabicyclo[3.2.1]octan-3-yl)-8-fluoro-2-(((2R,7aS)-2-fluorotetrahydro-1H-pyrrolizin-7a(5H)-yl)methoxy)pyrido[4,3-d]pyrimidin-7-yl)-6-fluoronaphthalen-2-ol] | 50 to 500 | < 50 | – | – | – |
